Source: PMC8933379, “Evaluation of the absolute oral bioavailability of the anaplastic lymphoma kinase/c-ROS oncogene 1 kinase inhibitor lorlatinib in healthy participants” (Cancer Chemotherapy and Pharmacology, 2021)
Converted amounts (≈) assume the structure as drawn. “Also recorded” adds a separate entry of the source. Read-outs that look alike come from different tables or passages of the source.

Columns and labels:
[1] = Safety evaluation (adverse events) in the crossover study
Description: Safety assessments were performed at screening, during the study, and at study completion, clinic discharge, or early termination. Safety assessments included physical examinations, 12‐lead ECGs, vital signs, and clinical laboratory evaluations. All adverse events (AEs) and concomitant treatments were monitored and recorded throughout the study. AEs were reported using NCI CTCAE terminology.

[2] = system: human blood; details: planned IV dose formulation, human blood in vitro; earlier toxicology studies, no reference given; cited from earlier work
[3] = set-up: method as in earlier work; details: cited from earlier work
[4] = dogs; animal studies, no reference given; cited from earlier work
[5] = set-up: method as in PMID 24819116; details: in vitro; cited from earlier work
[6] = set-up: method as in PMID 32441835; details: cited from earlier work; for Total drug-related radioactivity (parent plus metabolites) recovered in urine: depends on radioactivity placement on the molecule
[7] = Solubility in aqueous media; assay type: physicochemical
[8] = 100 mg single oral dose of [14C]lorlatinib, healthy participants

C[C@H]1Oc2cc(cnc2N)-c2c(nn(C)c2C#N)CN(C)C(=O)c2ccc(F)cc21 [Lorlatinib, (10R)-7-amino-12-fluoro-2,10,16-trimethyl-15-oxo-10,15,16,17-tetrahydro-2H-8,4-(metheno)pyrazolo[4,3-h][2,5,11]-benzoxadiazacyclotetradecine-3-carbonitrile]
Tolerability ([1]; 50 mg IV dose and 100 mg single oral dose, healthy participants): generally well-tolerated | Number of TEAEs (treatment-emergent adverse events) ([1]; 50 mg IV, n = 11): 8 | Number of TRAEs (treatment-related adverse events) ([1]; 50 mg IV, n = 11): 6 | Number of participants who reported AEs ([1]; 50 mg IV, n = 11): 4 | Participants with AEs: Abdominal discomfort, all causality ([1]; 50 mg IV, n = 11): 0 | Participants with AEs: Contusion, TRAE ([1]; 50 mg IV, n = 11): 0 | Participants with AEs: Contusion, all causality ([1]; 50 mg IV, n = 11): 1 | Participants with AEs: Dizziness, TRAE ([1]; 50 mg IV, n = 11): 1 (1) | Participants with AEs: Dizziness, all causality ([1]; 50 mg IV, n = 11): 1 (1) | Participants with AEs: Dysuria, all causality ([1]; 50 mg IV, n = 11): 0 | Participants with AEs: Eye disorders, all causality ([1]; 50 mg IV, n = 11): 0 | Participants with AEs: Gastrointestinal disorders, all causality ([1]; 50 mg IV, n = 11): 0 | Participants with AEs: General disorders and administration side conditions, all causality ([1]; 50 mg IV, n = 11): 0 | Participants with AEs: Headache, TRAE ([1]; 50 mg IV, n = 11): 2 (2) | Participants with AEs: Headache, all causality ([1]; 50 mg IV, n = 11): 2 (2) | Participants with AEs: Injury, poisoning and procedural complications, TRAE ([1]; 50 mg IV, n = 11): 0 | Participants with AEs: Injury, poisoning and procedural complications, all causality ([1]; 50 mg IV, n = 11): 1 | Participants with AEs: Investigations, TRAE ([1]; 50 mg IV, n = 11): 1 (1) | Participants with AEs: Investigations, all causality ([1]; 50 mg IV, n = 11): 1 (1) | Participants with AEs: Mental impairment, all causality ([1]; 50 mg IV, n = 11): 0 | Participants with AEs: Nausea, all causality ([1]; 50 mg IV, n = 11): 0 | Participants with AEs: Nervous system disorders, TRAE ([1]; 50 mg IV, n = 11): 2 (2) | Participants with AEs: Nervous system disorders, all causality ([1]; 50 mg IV, n = 11): 2 (2) | Participants with AEs: Nervousness, TRAE ([1]; 50 mg IV, n = 11): 0 | Participants with AEs: Nervousness, all causality ([1]; 50 mg IV, n = 11): 1 | Participants with AEs: Paraesthesia, TRAE ([1]; 50 mg IV, n = 11): 1 (1) | Participants with AEs: Paraesthesia, all causality ([1]; 50 mg IV, n = 11): 1 (1) | Participants with AEs: Photophobia, all causality ([1]; 50 mg IV, n = 11): 0 | Participants with AEs: Psychiatric disorders, TRAE ([1]; 50 mg IV, n = 11): 0 | Participants with AEs: Psychiatric disorders, all causality ([1]; 50 mg IV, n = 11): 1 | Participants with AEs: Renal and urinary disorders, all causality ([1]; 50 mg IV, n = 11): 0 | Participants with AEs: Somnolence, all causality ([1]; 50 mg IV, n = 11): 0 | Participants with AEs: Transaminase increased, TRAE ([1]; 50 mg IV, n = 11): 1 (1) | Participants with AEs: Transaminase increased, all causality ([1]; 50 mg IV, n = 11): 1 (1) | Participants with AEs: Visual field defect, TRAE ([1]; 50 mg IV, n = 11): 1 (1) | Participants with AEs: Visual field defect, all causality ([1]; 50 mg IV, n = 11): 1 (1) | Deaths, serious AEs, severe AEs, discontinuations or dose reductions due to AEs ([1]; 100 mg oral and 50 mg IV, 11 healthy participants): No deaths, serious adverse events (AEs), or severe AEs were reported; also recorded: No deaths, serious AEs, severe AEs, permanent discontinuations, temporary discontinuations, or dose reductions due to AEs were reported | Number of TEAEs (treatment-emergent adverse events) ([1]; 100 mg oral tablets, n = 11): 12 | Number of TRAEs (treatment-related adverse events) ([1]; 100 mg oral tablets, n = 11): 9 | Participants with AEs: Abdominal discomfort, TRAE ([1]; 100 mg oral tablets, n = 11): 0 | Participants with AEs: Abdominal discomfort, all causality ([1]; 100 mg oral tablets, n = 11): 1 | Participants with AEs: Contusion, all causality ([1]; 100 mg oral tablets, n = 11): 0 | Participants with AEs: Dizziness, TRAE ([1]; 100 mg oral tablets, n = 11): 1 (1) | Participants with AEs: Dizziness, all causality ([1]; 100 mg oral tablets, n = 11): 1 (1) | Participants with AEs: Dysuria, TRAE ([1]; 100 mg oral tablets, n = 11): 1 (1) | Participants with AEs: Dysuria, all causality ([1]; 100 mg oral tablets, n = 11): 1 (1) | Participants with AEs: Eye disorders, TRAE ([1]; 100 mg oral tablets, n = 11): 1 (1) | Participants with AEs: Eye disorders, all causality ([1]; 100 mg oral tablets, n = 11): 1 (1) | Participants with AEs: Gastrointestinal disorders, TRAE ([1]; 100 mg oral tablets, n = 11): 0 | Participants with AEs: Gastrointestinal disorders, all causality ([1]; 100 mg oral tablets, n = 11): 2 | Participants with AEs: General disorders and administration side conditions, TRAE ([1]; 100 mg oral tablets, n = 11): 0 | Participants with AEs: General disorders and administration side conditions, all causality ([1]; 100 mg oral tablets, n = 11): 1 | Participants with AEs: Headache, TRAE ([1]; 100 mg oral tablets, n = 11): 2 (2) | Participants with AEs: Headache, all causality ([1]; 100 mg oral tablets, n = 11): 2 (2) | Participants with AEs: Injury, poisoning and procedural complications, all causality ([1]; 100 mg oral tablets, n = 11): 0 | Participants with AEs: Investigations, TRAE ([1]; 100 mg oral tablets, n = 11): 1 (1) | Participants with AEs: Investigations, all causality ([1]; 100 mg oral tablets, n = 11): 1 (1) | Participants with AEs: Mental impairment, TRAE ([1]; 100 mg oral tablets, n = 11): 1 (1) | Participants with AEs: Mental impairment, all causality ([1]; 100 mg oral tablets, n = 11): 1 (1) | Participants with AEs: Nausea, TRAE ([1]; 100 mg oral tablets, n = 11): 0 | Participants with AEs: Nausea, all causality ([1]; 100 mg oral tablets, n = 11): 1 | Participants with AEs: Nervous system disorders, TRAE ([1]; 100 mg oral tablets, n = 11): 3 (3) | Participants with AEs: Nervous system disorders, all causality ([1]; 100 mg oral tablets, n = 11): 3 (3) | Participants with AEs: Nervousness, all causality ([1]; 100 mg oral tablets, n = 11): 0 | Participants with AEs: Paraesthesia, TRAE ([1]; 100 mg oral tablets, n = 11): 1 (1) | Participants with AEs: Paraesthesia, all causality ([1]; 100 mg oral tablets, n = 11): 1 (1) | Participants with AEs: Photophobia, TRAE ([1]; 100 mg oral tablets, n = 11): 1 (1) | Participants with AEs: Photophobia, all causality ([1]; 100 mg oral tablets, n = 11): 1 (1) | Participants with AEs: Psychiatric disorders, all causality ([1]; 100 mg oral tablets, n = 11): 0 | Participants with AEs: Renal and urinary disorders, TRAE ([1]; 100 mg oral tablets, n = 11): 1 (1) | Participants with AEs: Renal and urinary disorders, all causality ([1]; 100 mg oral tablets, n = 11): 1 (1) | Participants with AEs: Somnolence, TRAE ([1]; 100 mg oral tablets, n = 11): 1 (1) | Participants with AEs: Somnolence, all causality ([1]; 100 mg oral tablets, n = 11): 1 (1) | Participants with AEs: Transaminase increased, TRAE ([1]; 100 mg oral tablets, n = 11): 1 (1) | Participants with AEs: Transaminase increased, all causality ([1]; 100 mg oral tablets, n = 11): 1 (1) | Participants with AEs: Visual field defect, all causality ([1]; 100 mg oral tablets, n = 11): 0 | Number of participants who reported AEs ([1]; 100 mg oral, n = 11): 4 | Potential to cause hemolysis [2]: did not indicate any potential to cause hemolysis | Oral apparent clearance (CL/F), mean (CV%) ([3]; after a 100 mg single oral dose): 11 L/h | Oral apparent clearance (CL/F), mean (CV%) ([3]; at steady-state): 18 L/h | Plasma terminal half-life (t½), mean (CV%) [3]: approximately 24 h | Absolute bioavailability [4]: ~97% | Permeability [5]: highly permeable | Unchanged lorlatinib recovered in faeces [6, 8]: ~ 9% | Unchanged lorlatinib recovered in urine [6, 8]: < 1% | Total drug-related radioactivity (parent plus metabolites) recovered in urine ([6]; first of two values): 48% | Total drug-related radioactivity (parent plus metabolites) recovered in urine ([6]; second of two values): 28% | solubility ([7]; pH 2.55): 32.4 mg/mL (≈ 79.7 mM) | solubility ([7]; pH 8.02): 0.17 mg/mL (≈ 0.418 mM)
